Columns and labels:
[1] = tested on: Tonische Konvulsionen der Hinterextremitäten; assay: Maximal electroshock test in mice (Elektroschock Test an Mäusen); assay type: in vivo; settings: Mäuse; for ED50: Mus musculus, read-out: Schutz vor dem maximalen Elektroschock ED50
Excerpt: (§1) Beispiel 5: Die akute Schutzwirkung von Carbamazepin und Oxcarbazepin nach intravenöser Verabreichung im Vergleich zur oralen wurde mit Hilfe des maximalen Elektroschocks ermittelt. Die folgenden Methoden wurden verwendet:
(§2) -Elektroschock Test an Mäusen: Tonische Konvulsionen der Hinterextremitäten wurden durch Verabreichung eines Wechselstromes von 50 Hz und 18 mA während 0,2 Sekunden mittels Cornealelektroden ausgelöst. Für jede Dosis und Zeiteinheit wurden 10 Mäuse verwendet; eine Gruppe diente als Kontrolle. Die Anzahl der Mäuse, die keine tonische Konvulsionen der Hinterextremitäten zeigte, wurde für jede Gruppe bestimmt. Die ED₅₀ wurde mit Hilfe der Regressionsanalyse nach der Methode von Spearman und Kärber bestimmt. Die Injektionsvolumina für i.v. Verabreichung sind 5 ml/kg bei Mäusen und 1 ml/kg bei Ratten.

[2] = tested on: Tonische Konvulsionen der Hinterextremitäten; assay: Maximal electroshock test in rats (Elektroschock Test an Ratten); assay type: in vivo; settings: for ED50: Rattus norvegicus, read-out: Schutz vor dem maximalen Elektroschock ED50
Excerpt: as §1
-Elektroschock Test an Ratten: Tonische Konvulsionen der Hinterextremitäten wurden durch Verabreichung eines Wechselstroms von 50 Hz und 36 mA während 0,63 Sekunden mit Hilfe von Cornealelektroden ausgelöst. Es wurden 10 Ratten pro Dosis und Zeiteinheit verwendet; eine Gruppe diente als Kontrolle. Die Anzahl der Ratten, die keine tonische Konvulsionen der Hinterextremitäten aufwiesen, wurde für jede Gruppe bestimmt. Die ED₅₀ wurde mit Hilfe der Regressionsanalyse nach der Methode von Spearman und Kärber berechnet.
as §2
[…] Die ED₅₀-Werte wurden durch Regressionsanalyse aus drei verschiedenen Dosen (10 Ratten pro Dosis) berechnet.

[3] = Solubility and properties of aqueous Hydroxypropyl-γ-cyclodextrin injection solutions; settings: 22°C, in 40%-iger wässriger Lösung von Hydroxypropyl-γ-cyclodextrin
Experimental: In 100 ml dieser Lösung werden 1500 mg Carbamazepin durch Rühren bei Raumtemperatur (= 20°C) gelöst.
In 100 ml dieser Lösung werden 400,0 mg fein gemahlenes Oxcarbazepin durch Rühren bei 22°C gelöst.

[4] = iv, 2.5 min, intravenös, 2,5 min
[5] = po, 1 h, oral (suspension in Methocel®), 60 min
[6] = po, 2 h, oral (suspension in Methocel®), 120 min
[7] = iv, 5 min, intravenös, 5 min before shock
[8] = iv, 0.25 h, intravenös, 15 min before shock
[9] = po, 5 min, oral (suspension in Methocel®), 5 min
[10] = po, 0.5 h, oral (suspension in Methocel®), 30 min
[11] = po, 0.25 h, oral (suspension in Methocel®), 15 min

| SMILES | ED50 [1, 4] [mg/kg] | ED50 ([1]; iv, 5 min, intravenös, 5 min) [mg/kg] | ED50 ([1]; iv, 0.25 h, intravenös, 15 min) [mg/kg] | ED50 ([1]; iv, 0.5 h, intravenös, 30 min) [mg/kg] | ED50 ([1]; iv, 1 h, intravenös, 60 min) [mg/kg] | ED50 [1, 5] [mg/kg] | ED50 [1, 6] [mg/kg] | ED50 [2, 7] [mg/kg] | ED50 [2, 8] [mg/kg] | ED50 ([2]; iv, 0.5 h, intravenös, 30 min) [mg/kg] | ED50 ([2]; iv, 1 h, intravenös, 60 min) [mg/kg] | ED50 ([2]; iv, 2 h, intravenös, 120 min) [mg/kg] | ED50 [2, 10] [mg/kg] | ED50 [2, 5] [mg/kg] | other results |
| --- | --- | --- | --- | --- | --- | --- | --- | --- | --- | --- | --- | --- | --- | --- | --- |
| NC(=O)N1c2ccccc2C=Cc2ccccc21 [Carbamazepin, 5H-Dibenz[b,f]azepin-5-carboxamid] | 2.9 | 2.6 | 4.7 | 6.8 | 6.5 | 13 | 27 | 2.5 | 2.5 | 2 | 3.1 | 4.3 | 9.6 | 10 | ED50 ([1]; iv, 2 h, intravenös, 120 min): 17.3 mg/kg; Schutz vor dem maximalen Elektroschock ([1]; oral (suspension in Methocel®), 2,5 min, bei 60 mg/kg): 10 % bei 60 mg/kg; ED50 ([2]; po, 2.5 min, oral (suspension in Methocel®), 2,5 min): 60 mg/kg; ED50 [2, 9]: 60 mg/kg |
| NC(=O)N1c2ccccc2CC(=O)c2ccccc21 [Oxcarbazepin, 10,11-Dihydro-10-oxo-5-dibenz[b,f]-acepin-5-carboxamid] | 4.35 | 4.35 | 5 | 7.07 | 10.7 | 17.8 | 36.3 | 3.44 | 2.5 | 3.44 | 4.85 | 5.7 | 12.2 | 15.8 | ED50 [1, 9]: 40.4 mg/kg; ED50 [1, 11]: 14.5 mg/kg; ED50 [1, 10]: 15.7 mg/kg; Schutz vor dem maximalen Elektroschock ED50 ([1]; intravenös, 2,5 min, 2.5 min): 2,35 mg/kg; Schutz vor dem maximalen Elektroschock ED50 ([1]; intravenös, 15 min): 5,00 mg/kg; Schutz vor dem maximalen Elektroschock ED50 ([1]; intravenös, 60 min): 10,72 mg/kg; Schutz vor dem maximalen Elektroschock ([1]; intravenös, 120 min, bei 20 mg/kg): 20 % bei 20 mg/kg; ED50 [2, 11]: 12.2 mg/kg; ED50 [2, 6]: 16.1 mg/kg; Schutz vor dem maximalen Elektroschock ED50 ([2]; intravenös, 15 min before shock, 15 min): 3,44 mg/kg; Schutz vor dem maximalen Elektroschock ([2]; oral (suspension in Methocel®), 5 min, bei 30 mg/kg): 20 % bei 30 mg/kg; Löslichkeit [3]: 37 mg in 10,0 ml |

From patent EP0435826A1, “Intravenous solutions for epilepsy” (CIBA-GEIGY AG, priority 1989, dated 1991)
